Data as given in patent US20120165331A1, “Di/tri-aza-spiro-C9-C11alkanes” (priority 2010, published 2012).
pKi: −log10 of the molar value.

Tests used:
human orexin 2 receptor = target: T1, human orexin 2 receptor (Homo sapiens, UniProt O43614); test: Calcium accumulation in cells (FLIPR), antagonism of orexin A, human orexin 2 receptor; type: cell-based; conditions: for pKi: calcium accumulation, antagonism of orexin A, Cheng-Prusoff corrected, read-out: FLIPR hOx2R Ki; for inhibition at 10 µM: measured at a concentration of 10 μM of compound, read-out: FLIPR hOx2R % inhibition
T1 construct: expressed in transfected cells
T1 sequence (O43614 1-444): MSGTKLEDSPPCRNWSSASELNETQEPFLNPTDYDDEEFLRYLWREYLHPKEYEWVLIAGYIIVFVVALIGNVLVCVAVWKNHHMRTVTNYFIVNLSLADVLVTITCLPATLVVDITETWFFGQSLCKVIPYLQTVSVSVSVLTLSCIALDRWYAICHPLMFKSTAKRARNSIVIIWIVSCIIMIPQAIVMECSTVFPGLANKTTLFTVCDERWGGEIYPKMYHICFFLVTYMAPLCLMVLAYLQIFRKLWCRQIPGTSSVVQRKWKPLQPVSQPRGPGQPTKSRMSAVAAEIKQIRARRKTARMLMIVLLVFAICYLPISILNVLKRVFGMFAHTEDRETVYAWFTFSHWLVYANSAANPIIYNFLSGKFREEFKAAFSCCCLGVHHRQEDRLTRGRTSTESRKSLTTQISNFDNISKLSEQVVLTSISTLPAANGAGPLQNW

human orexin 1 receptor = target: T2, human orexin 1 receptor (Homo sapiens, UniProt O43613); test: Calcium accumulation in cells (FLIPR), antagonism of orexin A, human orexin 1 receptor; type: cell-based; conditions: for pKi: calcium accumulation, antagonism of orexin A, Cheng-Prusoff corrected, read-out: FLIPR hOx1R Ki; for inhibition at 10 µM: measured at a concentration of 10 μM of compound, read-out: FLIPR hOx1R % inhibition
T2 construct: expressed in transfected cells
T2 sequence (O43613 1-425): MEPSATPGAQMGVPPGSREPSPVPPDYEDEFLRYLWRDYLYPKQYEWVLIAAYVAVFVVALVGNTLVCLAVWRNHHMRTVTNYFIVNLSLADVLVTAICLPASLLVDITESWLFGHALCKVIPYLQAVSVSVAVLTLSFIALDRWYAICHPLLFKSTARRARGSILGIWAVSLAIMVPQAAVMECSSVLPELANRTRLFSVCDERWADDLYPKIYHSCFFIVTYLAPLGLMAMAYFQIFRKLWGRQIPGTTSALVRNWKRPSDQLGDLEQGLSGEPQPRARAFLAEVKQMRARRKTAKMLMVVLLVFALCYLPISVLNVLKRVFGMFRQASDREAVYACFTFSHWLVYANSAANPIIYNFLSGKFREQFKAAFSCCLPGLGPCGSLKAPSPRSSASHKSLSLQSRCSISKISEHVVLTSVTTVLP

| Structure (SMILES) | pKi (human orexin 2 receptor) | pKi (human orexin 1 receptor) | inhibition at 10 µM (human orexin 1 receptor) | inhibition at 10 µM (human orexin 2 receptor) |
| --- | --- | --- | --- | --- |
| O=C1N(Cc2c[nH]c3ccccc23)CCC12CCN(c1cnc3ccccc3n1)C2 (stereo not shown) [Example 5.5, 2-((1H-Indol-3-yl)methyl)-7-(quinoxalin-2-yl)-2,7-diazaspiro[4.4]nonan-1-one] | 6.37 | 5.91 |  |  |
| Cc1ccnc(N2CCC3(CCN(Cc4c[nH]c5ccccc45)C3=O)C2)n1 (stereo not shown) [Example 5.6, 2-((1H-Indol-3-yl)methyl)-7-(4-methylpyrimidin-2-yl)-2,7-diazaspiro[4.4]nonan-1-one] | 6.41 |  | 33% |  |
| Cc1cc(C)nc(N2CCC3(CCN(Cc4c[nH]c5ccccc45)C3=O)C2)n1 (stereo not shown) [Example 5.7, 2-((1H-Indol-3-yl)methyl)-7-(4,6-dimethylpyrimidin-2-yl)-2,7-diazaspiro[4.4]nonan-1-one] | 6.60 | 5.67 |  |  |
| O=C1N(Cc2c[nH]c3ccccc23)CCC12CCN(c1nc3ccccc3o1)C2 (stereo not shown) [Example 5.8, 2-((1H-Indol-3-yl)methyl)-7-(benzo[d]oxazol-2-yl)-2,7-diazaspiro[4.4]nonan-1-one] | 6.52 | 6.13 |  |  |
| Cc1cc(C)nc(N2CCC3(CCN(Cc4cccc5[nH]ccc45)C3=O)C2)n1 (stereo not shown) [Example 5.9, 2-((1H-Indol-4-yl)methyl)-7-(4,6-dimethylpyrimidin-2-yl)-2,7-diazaspiro[4.4]nonan-1-one] | 5.89 |  | < 10% |  |
| COc1cc(C)nc(N2CCC3(CCN(Cc4cccc5[nH]ccc45)C3=O)C2)n1 (stereo not shown) [Example 5.10, 2-((1H-Indol-4-yl)methyl)-7-(4-methoxy-6-methylpyrimidin-2-yl)-2,7-diazaspiro[4.4]nonan-1-one] | 6.20 | 5.87 |  |  |
| COc1ccnc(N2CCC3(CCN(Cc4c[nH]c5ncccc45)C3=O)C2)n1 (stereo not shown) [Example 5.11, 2-((1H-Pyrrolo[2,3-b]pyridin-3-yl)methyl)-7-(4-methoxypyrimidin-2-yl)-2,7-diazaspiro[4.4]nonan-1-one] |  |  | < 10% | 26% |
| COc1ccnc(N2CCC3(CCN(Cc4n[nH]c5ccccc45)C3=O)C2)n1 (stereo not shown) [Example 5.12, 2-((1H-Indazol-3-yl)methyl)-7-(4-methoxypyrimidin-2-yl)-2,7-diazaspiro[4.4]nonan-1-one] | 6.15 |  | 40% |  |
| COc1ccnc(N2CCC3(CCN(Cc4ccccc4-c4nc(C)no4)C3=O)C2)n1 (stereo not shown) [Example 5.13, 7-(4-Methoxypyrimidin-2-yl)-2-(2-(3-methyl-1,2,4-oxadiazol-5-yl)benzyl)-2,7-diazaspiro[4.4]nonan-1-one] | 6.17 | 5.38 |  |  |
| COc1cccc(-c2n[nH]nc2CN2CCC3(CCN(c4nccc(OC)n4)C3)C2=O)c1 (stereo not shown) [Example 5.14, 2-((5-(3-Methoxyphenyl)-2H-1,2,3-triazol-4-yl)methyl)-7-(4-methoxypyrimidin-2-yl)-2,7-diazaspiro[4.4]nonan-1-one] | 6.84 | 6.26 |  |  |
| O=C1N(Cc2c[nH]c3ccccc23)CCC12CCN(c1nc3cc(Cl)ccc3o1)C2 (stereo not shown) [Example 5.15, 2-((1H-Indol-3-yl)methyl)-7-(5-chlorobenzo[d]oxazol-2-yl)-2,7-diazaspiro[4.4]nonan-1-one] |  |  | 29% | 37% |
| O=C1N(Cc2c[nH]c3ccccc23)CCC12CCN(c1ncc3cc(F)ccc3n1)C2 (stereo not shown) [Example 5.16, 2-((1H-Indol-3-yl)methyl)-7-(6-fluoroquinazolin-2-yl)-2,7-diazaspiro[4.4]nonan-1-one] | 6.29 | 5.95 |  |  |
| O=C1N(Cc2c[nH]c3ccccc23)CCC12CCN(c1cc(C(F)(F)F)ncn1)C2 (stereo not shown) [Example 5.17, 2-((1H-Indol-3-yl)methyl)-7-(6-(trifluoromethyl)pyrimidin-4-yl)-2,7-diazaspiro[4.4]nonan-1-one] | 5.75 |  | 49% |  |
| O=C1N(Cc2c[nH]c3ccccc23)CCC12CCN(c1nccc(-n3ccnc3)n1)C2 (stereo not shown) [Example 5.18, 7-(4-(1H-imidazol-1-yl)pyrimidin-2-yl)-2-((1H-indol-3-yl)methyl)-2,7-diazaspiro[4.4]nonan-1-one] | 5.91 | 5.72 |  |  |
| O=C1N(Cc2c[nH]c3ccccc23)CCC12CCN(c1ccnc(-n3ccnc3)n1)C2 (stereo not shown) [Example 5.19, 7-(2-(1H-imidazol-1-yl)pyrimidin-4-yl)-2-((1H-indol-3-yl)methyl)-2,7-diazaspiro[4.4]nonan-1-one] | 6.18 | 5.92 |  |  |
| O=C1N(Cc2c[nH]c3ccccc23)CCC12CCN(c1ccc(-n3ccnc3)nn1)C2 (stereo not shown) [Example 5.20, 7-(6-(1H-imidazol-1-yl)pyridazin-3-yl)-2-((1H-indol-3-yl)methyl)-2,7-diazaspiro[4.4]nonan-1-one] |  |  | 34% | 33% |
| COc1cc(N2CCC3(CCN(Cc4c[nH]c5ccccc45)C3=O)C2)nc(C2CC2)n1 (stereo not shown) [Example 5.21, 2-((1H-indol-3-yl)methyl)-7-(2-cyclopropyl-6-methoxypyrimidin-4-yl)-2,7-diazaspiro[4.4]nonan-1-one] | 6.43 | 5.89 |  |  |
| Cn1ccnc1-c1ccnc(N2CCC3(CCN(Cc4c[nH]c5ccccc45)C3=O)C2)n1 (stereo not shown) [Example 5.22, 2-((1H-indol-3-yl)methyl)-7-(4-(1-methyl-1H-imidazol-2-yl)pyrimidin-2-yl)-2,7-diazaspiro[4.4]nonan-1-one] | 6.31 | 6.03 |  |  |
| Cc1cnc(N2CCC3(CCN(Cc4c[nH]c5ccccc45)C3=O)C2)s1 (stereo not shown) [Example 5.23, 2-((1H-indol-3-yl)methyl)-7-(5-methylthiazol-2-yl)-2,7-diazaspiro[4.4]nonan-1-one] | 6.19 |  | 67% |  |
| O=C1N(Cc2c[nH]c3ccccc23)CCC12CCN(c1cc3c(nn1)CCOC3)C2 (stereo not shown) [Example 5.24, 2-((1H-indol-3-yl)methyl)-7-(7,8-dihydro-5H-pyrano[4,3-c]pyridazin-3-yl)-2,7-diazaspiro[4.4]nonan-1-one] |  |  | 25% | 54% |
| Cc1cc(N2CCOCC2)nc(N2CCC3(CCN(Cc4c[nH]c5ccccc45)C3=O)C2)n1 (stereo not shown) [Example 5.25, 2-((1H-indol-3-yl)methyl)-7-(4-methyl-6-morpholinopyrimidin-2-yl)-2,7-diazaspiro[4.4]nonan-1-one] |  |  | 71% | 66% |
| Cc1nc(N2CCOCC2)cc(N2CCC3(CCN(Cc4c[nH]c5ccccc45)C3=O)C2)n1 (stereo not shown) [Example 5.26, 2-((1H-indol-3-yl)methyl)-7-(2-methyl-6-morpholinopyrimidin-4-yl)-2,7-diazaspiro[4.4]nonan-1-one] |  |  | 37% | 47% |
| Cc1cccc(N2CCC3(CCN(Cc4c[nH]c5ccccc45)C3=O)C2)n1 (stereo not shown) [Example 5.27, 2-((1H-indol-3-yl)methyl)-7-(6-methylpyridin-2-yl)-2,7-diazaspiro[4.4]nonan-1-one] | 6.53 | 5.62 |  |  |
| Cc1ccnc(N2CCC3(CCN(Cc4c[nH]c5ccccc45)C3=O)C2)c1 (stereo not shown) [Example 5.28, 2-((1H-indol-3-yl)methyl)-7-(4-methylpyridin-2-yl)-2,7-diazaspiro[4.4]nonan-1-one] | 6.74 |  | 34% |  |
| Cc1cc(C)nc(N2CCC3(CCN(Cc4c[nH]c5ccccc45)C3=O)C2)c1 (stereo not shown) [Example 5.29, 2-((1H-indol-3-yl)methyl)-7-(4,6-dimethylpyridin-2-yl)-2,7-diazaspiro[4.4]nonan-1-one] | 6.94 | 5.83 |  |  |
| COc1ccnc(N2CCC3(CCN(Cc4c[nH]c5ccccc45)C3=O)C2)c1 (stereo not shown) [Example 5.30, 2-((1H-indol-3-yl)methyl)-7-(4-methoxypyridin-2-yl)-2,7-diazaspiro[4.4]nonan-1-one] | 6.71 | 5.36 |  |  |
| Cc1cc(N2CCC3(CCN(Cc4c[nH]c5ccccc45)C3=O)C2)nc(C)n1 (stereo not shown) [Example 5.31, 2-((1H-indol-3-yl)methyl)-7-(2,6-dimethylpyrimidin-4-yl)-2,7-diazaspiro[4.4]nonan-1-one] |  |  | < 10% | 24% |
| Cn1ccc2ccnc(N3CCC4(CCN(Cc5c[nH]c6ccccc56)C4=O)C3)c21 (stereo not shown) [Example 5.32, 2-((1H-indol-3-yl)methyl)-7-(1-methyl-1H-pyrrolo[2,3-c]pyridin-7-yl)-2,7-diazaspiro[4.4]nonan-1-one] | 5.64 | 5.35 |  |  |
| COc1cc(N2CCC3(CCN(Cc4c[nH]c5ccccc45)C3=O)C2)nc2ccnn12 (stereo not shown) [Example 5.33, 2-((1H-indol-3-yl)methyl)-7-(7-methoxypyrazolo[1,5-a]pyrimidin-5-yl)-2,7-diazaspiro[4.4]nonan-1-one] |  |  | < 10% | < 10% |
